Measured values as given in patent US20120172361A1, “TRIAZINE DERIVATIVES AND THEIR THERAPEUTICAL APPLICATIONS” (CALIFORNIA CAPITAL EQUITY, LLC, priority 2009, published 2012).

biological target: T1, Aurora-A(h) (Homo sapiens, UniProt O14965); experiment: Aurora-A kinase assay (KinaseProfiler Service Assay Protocols, Millipore; also Kinase Hotspot, Reaction Biology Corp.); assay type: biochemical; conditions: compound concentration 1 μM
T1 construct: purchased Millipore (KinaseProfiler service); also Reaction Biology Corp. (Kinase Hotspot)
T1 sequence (O14965 1-403): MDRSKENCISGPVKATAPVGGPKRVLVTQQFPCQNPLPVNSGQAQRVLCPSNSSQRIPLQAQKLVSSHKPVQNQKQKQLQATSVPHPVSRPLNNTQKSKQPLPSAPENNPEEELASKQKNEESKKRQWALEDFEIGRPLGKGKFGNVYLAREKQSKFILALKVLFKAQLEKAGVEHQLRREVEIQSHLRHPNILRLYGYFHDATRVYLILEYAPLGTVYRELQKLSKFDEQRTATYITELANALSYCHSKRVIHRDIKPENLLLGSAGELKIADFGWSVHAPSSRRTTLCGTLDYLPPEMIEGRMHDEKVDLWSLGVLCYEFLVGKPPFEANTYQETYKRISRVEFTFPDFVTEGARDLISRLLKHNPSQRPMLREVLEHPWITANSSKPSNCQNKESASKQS
Protocol: This example illustrated Aurora Kinase Assays of selected Compounds from this invention (referred to Daniele Fancelli et al, J. Med. Chem., 2006, 49 (24), pp 7247-7251). The KinaseProfiler™ Service Assay Protocols (Millipore) were used to test the kinase inhibiting activity of novel compounds from this invention. To do this, the buffer composition was as: 20 mM MOPS, 1 mM EDTA, 0.01% Brij-35, 5% Glycerol, 0.1% β-mercaptoethanol, 1 mg/mL BSA. Test compounds were initially dissolved in DMSO at the desired concentration, then serially diluted to the kinase assay buffer. In a final reaction volume of 25 μL, Aurora-A(h) (5-10 mU) is incubated with 8 mM MOPS pH 7.0, 0.2 mM EDTA, 200 μM LRRASLG (Kemptide), 10 mM MgAcetate and [γ33P-ATP]. The reaction was initiated by the addition of the MgATP mix. After incubation for 40 minute at room temperature, the reaction was stopped by addition of 5 μL of a 3% phosphoric acid solution. 10 μL of the reaction was then spotted onto a P30 filtermat and washed three times for 5 minutes in 50 mM phosphoric acid and once in methanol prior to drying and scintillation counting. Wells containing substrate but no kinase and wells containing a phosphopeptide control were used to set 0% and 100% phosphorylation value, respectively.
Also Kinase Hotspot SM kinase assay was used to test the compounds for IC50 or % inhibitions (Reaction Biology Corp.). Inhibitor IC50 values were determined by titration of compound at the optimal kinase concentration (Kinase EC50).

Row | Compound | inhibition at 1 µM [%]
1 | CCC(=O)Nc1ccc(Sc2nc(N3CCN(C)CC3)nc(-n3cc(C)sc3=N)n2)cc1 [Example 109] | < 50
2 | CCC(=O)Nc1ccc(Sc2nc(C3CC3)nc(-n3cc(C)sc3=N)n2)cc1 [Example 110] | > 50
3 | Cc1cn(-c2nc(Sc3ccc(NC(=O)c4ccccc4)cc3)nc(N3CCN(C)CC3)n2)c(=N)s1 [Example 112] | > 50
4 | Cc1ccnc(Nc2nc(Sc3ccc(NC(=O)C4CC4)cc3)nc(N3CCN(C)CC3)n2)n1 [Example 121] | < 50
5 | CN1CCN(c2nc(Nc3ccc(Br)cn3)nc(Sc3ccc(NC(=O)C4CC4)cc3)n2)CC1 [Example 123] | > 50
6 | Cc1cc(Nc2nc(Sc3ccc(NC(=O)C4CC4)cc3)nc(N(C)C)n2)n[nH]1 [Example 127] | > 90

Results, then the compound that gave them:

Row | inhibition at 1 µM [%] | Compound
7 | < 50 | CCc1nc(Nc2cc(C)[nH]n2)nc(Sc2ccc(C(=O)NC3CC3)cc2)n1 [Example 107]
8 | > 90 | Cc1cnc(Nc2nc(Sc3ccc(NC(=O)c4ccccc4)cc3)nc(N3CCN(C)CC3)n2)s1 [Example 113]
9 | > 90 | CCC(=O)Nc1ccc(Sc2nc(Nc3ncc(C)s3)nc(N3CCN(C)CC3)n2)cc1 [Example 114]
10 | > 90 | Cc1cc(Nc2nc(Sc3ccc(C(=O)NC(C)C)cc3)nc(N3CCN(C)CC3)n2)n[nH]1 [Example 115]
11 | > 90 | Cc1cc(Nc2nc(Sc3ccc(C(=O)Nc4ccccc4)cc3)nc(N3CCN(C)CC3)n2)n[nH]1 [Example 116]
12 | > 90 | Cc1cc(Nc2nc(Sc3ccc(C(=O)NCc4ccc(F)cc4)cc3)nc(N3CCN(C)CC3)n2)n[nH]1 [Example 118]
13 | < 50 | Cc1cc(Nc2nc(Sc3ccc(NC(=O)C4CC4)cc3)nc(N3CCN(C)CC3)n2)no1 [Example 120]
14 | > 50 | Cc1ccc(Nc2nc(Sc3ccc(NC(=O)C4CC4)cc3)nc(N3CCN(C)CC3)n2)nc1 [Example 122]
